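Grown in 96-well plates, cells were treated for 48 hours with each compound at five concentrations. Insufficient inhibition: endpoint recorded as highest concentration tested. The concentration for 50% growth inhibition is given as GI50. At the TGI there is no net growth.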
Assays:
Assay in all cases: NCI-60 cell line screen, 48 h
HOP-18 NSCLC = tested on: HOP-18 NSCLC
M19-MEL melanoma = tested on: M19-MEL melanoma
NCI-H23 lung = tested on: NCI-H23 lung
OVCAR-5 ovarian = tested on: OVCAR-5 ovarian
SF-539 CNS = tested on: SF-539 CNS
SK-MEL-5 melanoma = tested on: SK-MEL-5 melanoma
SNB-19 CNS = tested on: SNB-19 CNS
SNB-78 CNS = tested on: SNB-78 CNS
UACC-62 melanoma = tested on: UACC-62 melanoma
BT-549 breast = tested on: BT-549 breast
MDA-MB-435 = tested on: MDA-MB-435

Compound: Cc1cc(=O)oc2c1cc(OCC(=O)OCCN1CCCCC1)c1occ(C)c12
- TGI (HOP-18 NSCLC): > 100 µM
- TGI (M19-MEL melanoma): > 100 µM
- TGI (NCI-H23 lung): > 100 µM
- TGI (OVCAR-5 ovarian): > 100 µM
- TGI (SF-539 CNS): > 100 µM
- TGI (SK-MEL-5 melanoma): > 100 µM
- TGI (SNB-19 CNS): > 100 µM
- TGI (SNB-78 CNS): > 100 µM
- TGI (UACC-62 melanoma): > 100 µM

Compound: CCOC(=O)NC
- TGI (BT-549 breast): > 100 µM
- TGI (MDA-MB-435): > 100 µM
- TGI (NCI-H23 lung): > 100 µM
- TGI (OVCAR-5 ovarian): > 100 µM
- TGI (SF-539 CNS): > 100 µM
- TGI (SK-MEL-5 melanoma): > 100 µM
- TGI (SNB-19 CNS): > 100 µM
- TGI (UACC-62 melanoma): > 100 µM

Compound: Cn1c(Sc2ccc(-c3cccnc3)n2C)ccc1-c1cccnc1
- TGI (BT-549 breast): 49.8 µM
- TGI (MDA-MB-435): 29.1 µM
- TGI (NCI-H23 lung): 34.8 µM
- TGI (OVCAR-5 ovarian): 50.9 µM
- TGI (SF-539 CNS): 41.8 µM
- TGI (SK-MEL-5 melanoma): 30.4 µM
- TGI (SNB-19 CNS): 42.3 µM
- TGI (UACC-62 melanoma): 29.7 µM

Compound: O=C1c2ccccc2C(=O)c2c1ccc(C(=O)O)c2-c1ccc2ccccc2c1
- TGI (BT-549 breast): 68.3 µM
- TGI (MDA-MB-435): 60 µM
- TGI (NCI-H23 lung): 46.5 µM
- TGI (OVCAR-5 ovarian): 59.3 µM
- TGI (SF-539 CNS): 50.4 µM
- TGI (SK-MEL-5 melanoma): 39.4 µM
- TGI (SNB-19 CNS): > 100 µM
- TGI (UACC-62 melanoma): 37.8 µM

Compound: CCCCCCCCCCCCCCCCOCC(COP(=O)([O-])OCC[n+]1ccc(N(C)C)cc1)OCC (configuration not stated)
- TGI (BT-549 breast): 20.2 µM
- TGI (MDA-MB-435): 31.6 µM
- TGI (NCI-H23 lung): 35.9 µM
- TGI (SF-539 CNS): 26.3 µM
- TGI (SK-MEL-5 melanoma): 31.6 µM
- TGI (SNB-19 CNS): 14.4 µM
- TGI (UACC-62 melanoma): 29 µM

Compound: COc1cc2c(cc1Oc1ccc(OC)c3c1CC1c4c(cc(OC)c(OC)c4-3)CCN1C)CC1c3c(cc(OC)c(OC)c3-2)CCN1C (configuration not stated)
- TGI (HOP-18 NSCLC): 23.8 µM
- TGI (M19-MEL melanoma): 3.37 µM
- TGI (NCI-H23 lung): 27.4 µM
- TGI (OVCAR-5 ovarian): 12.8 µM
- TGI (SF-539 CNS): 3.39 µM
- TGI (SK-MEL-5 melanoma): 2.92 µM
- TGI (SNB-19 CNS): 14.5 µM
- TGI (SNB-78 CNS): 20.2 µM
- TGI (UACC-62 melanoma): 3.65 µM

Compound: NC(=O)Nc1cc(O)ccc1N=Nc1ccc(S(=O)(=O)Nc2ccccn2)cc1
- TGI (HOP-18 NSCLC): > 100 µM
- TGI (M19-MEL melanoma): > 100 µM
- TGI (NCI-H23 lung): > 100 µM
- TGI (OVCAR-5 ovarian): > 100 µM
- TGI (SF-539 CNS): > 100 µM
- TGI (SK-MEL-5 melanoma): > 100 µM
- TGI (SNB-19 CNS): > 100 µM
- TGI (SNB-78 CNS): > 100 µM
- TGI (UACC-62 melanoma): > 100 µM

Compound: COc1cc(C)c2c(=O)c3c(oc2c1)C(=O)c1c(O)c(OC)cc(O)c1C3=O
- TGI (HOP-18 NSCLC): 3.9 µM
- TGI (M19-MEL melanoma): 4.04 µM
- TGI (NCI-H23 lung): 3.38 µM
- TGI (OVCAR-5 ovarian): 5.36 µM
- TGI (SF-539 CNS): 4.19 µM
- TGI (SK-MEL-5 melanoma): 2.33 µM
- TGI (SNB-19 CNS): 7.89 µM
- TGI (SNB-78 CNS): 7.2 µM
- TGI (UACC-62 melanoma): 4.61 µM

Compound: COc1ccc(CC2c3cc(OC)c(OC)c(OC)c3CC[N+]2(C)C)cc1Oc1ccc(CC2c3cc4c(c(OC)c3CCN2C)OCO4)cc1 (configuration not stated)
- TGI (BT-549 breast): > 100 µM
- TGI (MDA-MB-435): > 100 µM
- TGI (NCI-H23 lung): > 100 µM
- TGI (OVCAR-5 ovarian): > 100 µM
- TGI (SF-539 CNS): > 100 µM
- TGI (SK-MEL-5 melanoma): > 100 µM
- TGI (SNB-19 CNS): > 100 µM
- TGI (UACC-62 melanoma): > 100 µM

Compound: c1ccc2sc(SCN(C3CCCCC3)C3CCCCC3)nc2c1
- TGI (BT-549 breast): > 100 µM
- TGI (MDA-MB-435): > 100 µM
- TGI (NCI-H23 lung): > 100 µM
- TGI (OVCAR-5 ovarian): > 100 µM
- TGI (SK-MEL-5 melanoma): > 100 µM
- TGI (SNB-19 CNS): > 100 µM
- TGI (UACC-62 melanoma): > 100 µM

Compound: COc1c(Cl)cc(S(=O)O)cc1Cl
- TGI (M19-MEL melanoma): > 100 µM
- TGI (NCI-H23 lung): > 100 µM
- TGI (OVCAR-5 ovarian): > 100 µM
- TGI (SF-539 CNS): > 100 µM
- TGI (SNB-19 CNS): > 100 µM
- TGI (SNB-78 CNS): > 100 µM
- TGI (UACC-62 melanoma): > 100 µM

Compound: COc1cc(O)c2c(c1)C(=O)c1cc(C)cc(O)c1C2=O
- TGI (HOP-18 NSCLC): > 100 µM
- TGI (M19-MEL melanoma): > 100 µM
- TGI (NCI-H23 lung): > 100 µM
- TGI (OVCAR-5 ovarian): > 100 µM
- TGI (SF-539 CNS): > 100 µM
- TGI (SK-MEL-5 melanoma): > 100 µM
- TGI (SNB-19 CNS): > 100 µM
- TGI (SNB-78 CNS): > 100 µM
- TGI (UACC-62 melanoma): > 100 µM

Compound: O=C(O)C1=NNC(C(=O)O)=NN1
- TGI (HOP-18 NSCLC): > 100 µM
- TGI (M19-MEL melanoma): > 100 µM
- TGI (NCI-H23 lung): > 100 µM
- TGI (OVCAR-5 ovarian): > 100 µM
- TGI (SF-539 CNS): > 100 µM
- TGI (SK-MEL-5 melanoma): > 100 µM
- TGI (SNB-19 CNS): > 100 µM
- TGI (SNB-78 CNS): > 100 µM
- TGI (UACC-62 melanoma): > 100 µM

Compound: Fc1ccc(-c2nnc3sc(COc4ccccc4Cl)nn23)cc1Cl
- GI50 (BT-549 breast): 22.9 µM
- TGI (BT-549 breast): 64.4 µM
- GI50 (MDA-MB-435): 49.5 µM
- TGI (MDA-MB-435): > 100 µM
- GI50 (NCI-H23 lung): 33.4 µM
- TGI (NCI-H23 lung): > 100 µM
- GI50 (OVCAR-5 ovarian): 81 µM
- TGI (OVCAR-5 ovarian): > 100 µM
- GI50 (SF-539 CNS): 41.4 µM
- TGI (SF-539 CNS): > 100 µM
- GI50 (SK-MEL-5 melanoma): 23.4 µM
- TGI (SK-MEL-5 melanoma): 69.1 µM
- GI50 (SNB-19 CNS): 39.9 µM
- TGI (SNB-19 CNS): > 100 µM
- GI50 (UACC-62 melanoma): 38.4 µM
- TGI (UACC-62 melanoma): > 100 µM

Compound: CC(CO)(CO)Nc1ncnc2ccccc12
- TGI (BT-549 breast): > 100 µM
- TGI (MDA-MB-435): > 100 µM
- TGI (NCI-H23 lung): > 100 µM
- TGI (OVCAR-5 ovarian): > 100 µM
- TGI (SK-MEL-5 melanoma): > 100 µM
- TGI (SNB-19 CNS): > 100 µM
- TGI (UACC-62 melanoma): > 100 µM

Compound: Nc1nnc(N)n1NC(=O)C(=O)Nc1ccc([N+](=O)[O-])cc1
- TGI (HOP-18 NSCLC): > 100 µM
- TGI (M19-MEL melanoma): > 100 µM
- TGI (NCI-H23 lung): > 100 µM
- TGI (OVCAR-5 ovarian): > 100 µM
- TGI (SF-539 CNS): > 100 µM
- TGI (SK-MEL-5 melanoma): > 100 µM
- TGI (SNB-19 CNS): > 100 µM
- TGI (SNB-78 CNS): > 100 µM
- TGI (UACC-62 melanoma): > 100 µM

Compound: CC1(O)CC23CC1CCC2(C)C12CCCC(C)(C(=O)O1)C2CC3O (configuration not stated)
- TGI (BT-549 breast): > 100 µM
- TGI (MDA-MB-435): > 100 µM
- TGI (NCI-H23 lung): > 100 µM
- TGI (OVCAR-5 ovarian): > 100 µM
- TGI (SF-539 CNS): > 100 µM
- TGI (SK-MEL-5 melanoma): > 100 µM
- TGI (SNB-19 CNS): > 100 µM
- TGI (UACC-62 melanoma): > 100 µM

Source: PubChem BioAssay (NCI)
